Reference: ChEMBL document CHEMBL1909046, “DrugMatrix in vitro pharmacology data”

Key:
[1] = target: T1, C-X-C chemokine receptor type 2 (Homo sapiens, UniProt P25025); assay type: cell membranes, Membrane; details: cho-k1; note: in other assays of this panel Not Active means under 50% inhibition at 10 µM
T1 sequence (P25025 whole entry): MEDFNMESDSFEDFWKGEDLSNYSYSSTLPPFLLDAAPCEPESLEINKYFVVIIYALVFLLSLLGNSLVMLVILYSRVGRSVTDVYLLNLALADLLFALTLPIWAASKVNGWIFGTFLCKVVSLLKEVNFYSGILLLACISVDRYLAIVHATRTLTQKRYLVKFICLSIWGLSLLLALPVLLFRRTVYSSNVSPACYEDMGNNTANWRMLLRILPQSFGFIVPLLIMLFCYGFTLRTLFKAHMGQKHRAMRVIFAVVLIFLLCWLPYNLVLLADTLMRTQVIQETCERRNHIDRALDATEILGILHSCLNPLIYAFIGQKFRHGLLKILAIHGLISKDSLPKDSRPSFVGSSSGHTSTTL

[2] = target: Delta-type opioid receptor (Homo sapiens, UniProt P41143); assay type: cell membranes, HEK293, Membrane; details: hek293; note: in other assays of this panel Not Active means under 50% inhibition at 10 µM
Delta-type opioid receptor, sequence (P41143 whole entry): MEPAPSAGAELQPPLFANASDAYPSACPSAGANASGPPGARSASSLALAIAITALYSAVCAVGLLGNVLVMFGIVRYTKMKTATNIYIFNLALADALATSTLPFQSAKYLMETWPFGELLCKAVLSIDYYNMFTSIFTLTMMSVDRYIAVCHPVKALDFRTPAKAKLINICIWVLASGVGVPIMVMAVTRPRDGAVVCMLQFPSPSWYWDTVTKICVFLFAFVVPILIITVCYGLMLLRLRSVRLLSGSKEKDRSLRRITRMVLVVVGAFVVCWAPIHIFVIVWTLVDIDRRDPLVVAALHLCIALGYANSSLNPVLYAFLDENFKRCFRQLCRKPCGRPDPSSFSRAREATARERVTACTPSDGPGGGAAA

[3] = target: Kappa-type opioid receptor (Homo sapiens, UniProt P41145); experiment: DRUGMATRIX: Opiate kappa (OP2, KOP) radioligand binding (ligand: [3H] Diprenorphine); assay type: cell membranes, HEK293, Membrane; details: hek293; Not Active = under 50% inhibition at 10 µM
Kappa-type opioid receptor, sequence (P41145 whole entry): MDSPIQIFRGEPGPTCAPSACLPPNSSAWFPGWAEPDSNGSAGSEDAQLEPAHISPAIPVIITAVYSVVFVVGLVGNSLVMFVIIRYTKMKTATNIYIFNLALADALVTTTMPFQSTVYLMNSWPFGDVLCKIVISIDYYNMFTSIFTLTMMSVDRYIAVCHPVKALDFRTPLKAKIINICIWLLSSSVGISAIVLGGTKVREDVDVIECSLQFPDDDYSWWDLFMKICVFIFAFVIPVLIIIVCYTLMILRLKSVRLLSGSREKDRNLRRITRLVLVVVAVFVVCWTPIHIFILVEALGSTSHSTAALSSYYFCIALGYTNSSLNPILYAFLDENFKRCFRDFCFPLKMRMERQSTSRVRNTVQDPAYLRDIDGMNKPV

[4] = DRUGMATRIX: Calcium Channel Type L, Dihydropyridine radioligand binding (ligand: [3H] Nitrendipine); assay type: cell membranes, Rattus norvegicus, Wistar, Cerebral cortex, Membrane; details: Not Active = under 50% inhibition at 10 µM
Adenosine receptor A2a = Adenosine receptor A2a (Homo sapiens, UniProt P29274); experiment: DRUGMATRIX: Adenosine A2A radioligand binding (ligand: […]); assay type: cell membranes, HEK293, Membrane; details: hek293; Not Active = under 50% inhibition at 10 µM
Adenosine receptor A2a, sequence (P29274 whole entry): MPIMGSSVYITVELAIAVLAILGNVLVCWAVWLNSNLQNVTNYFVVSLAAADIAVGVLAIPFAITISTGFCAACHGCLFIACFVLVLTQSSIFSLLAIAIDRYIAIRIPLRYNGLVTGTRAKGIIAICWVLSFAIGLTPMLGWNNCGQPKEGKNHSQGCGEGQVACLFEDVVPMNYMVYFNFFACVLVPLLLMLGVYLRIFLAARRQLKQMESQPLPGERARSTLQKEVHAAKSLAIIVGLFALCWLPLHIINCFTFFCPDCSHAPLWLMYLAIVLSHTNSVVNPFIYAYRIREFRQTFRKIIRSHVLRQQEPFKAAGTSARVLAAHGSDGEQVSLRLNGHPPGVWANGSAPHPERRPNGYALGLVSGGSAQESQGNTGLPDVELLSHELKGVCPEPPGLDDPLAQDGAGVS

[5] = DRUGMATRIX: Phosphodiesterase PDE4 enzyme inhibition (substrate: [3H]cAMP + cAMP); details: u-937; Not Active = under 50% inhibition at 10 µM
Substance-P receptor = Substance-P receptor (Homo sapiens, UniProt P25103); assay type: cell membranes, CHO, Membrane; details: cho; note: in other assays of this panel Not Active means under 50% inhibition at 10 µM
Substance-P receptor, sequence (P25103 whole entry): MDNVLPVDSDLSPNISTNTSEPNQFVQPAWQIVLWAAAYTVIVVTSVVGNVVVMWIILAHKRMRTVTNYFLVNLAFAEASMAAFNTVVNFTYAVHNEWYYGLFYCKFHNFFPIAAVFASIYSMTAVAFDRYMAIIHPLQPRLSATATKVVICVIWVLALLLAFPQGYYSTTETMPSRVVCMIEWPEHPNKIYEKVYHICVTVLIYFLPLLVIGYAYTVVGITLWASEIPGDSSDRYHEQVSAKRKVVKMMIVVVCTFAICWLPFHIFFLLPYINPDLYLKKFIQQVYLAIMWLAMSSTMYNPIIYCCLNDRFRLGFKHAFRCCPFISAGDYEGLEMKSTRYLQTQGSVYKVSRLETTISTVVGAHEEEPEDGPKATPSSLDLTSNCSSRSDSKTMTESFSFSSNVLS

[6] = DRUGMATRIX: Phosphodiesterase PDE3 enzyme inhibition (substrate: [3H]cAMP + cAMP); assay type: tissue-based, Homo sapiens; details: platelet; Not Active = under 50% inhibition at 10 µM
[7] = DRUGMATRIX: Leukotriene, BLT (LTB4) radioligand binding (ligand: [3H]LTB4); assay type: cell membranes, Membrane; details: u-937; Not Active = under 50% inhibition at 10 µM
[8] = target: T2, Amine oxidase [flavin-containing] A (Homo sapiens, UniProt P21397); experiment: DRUGMATRIX: Monoamine Oxidase MAO-A enzyme inhibition (substrate: Kynuramine); parameters: species or system BTI-TN-5B1-4; details: bti-tn-5b1-4; Not Active = under 50% inhibition at 10 µM
T2 sequence (P21397 whole entry): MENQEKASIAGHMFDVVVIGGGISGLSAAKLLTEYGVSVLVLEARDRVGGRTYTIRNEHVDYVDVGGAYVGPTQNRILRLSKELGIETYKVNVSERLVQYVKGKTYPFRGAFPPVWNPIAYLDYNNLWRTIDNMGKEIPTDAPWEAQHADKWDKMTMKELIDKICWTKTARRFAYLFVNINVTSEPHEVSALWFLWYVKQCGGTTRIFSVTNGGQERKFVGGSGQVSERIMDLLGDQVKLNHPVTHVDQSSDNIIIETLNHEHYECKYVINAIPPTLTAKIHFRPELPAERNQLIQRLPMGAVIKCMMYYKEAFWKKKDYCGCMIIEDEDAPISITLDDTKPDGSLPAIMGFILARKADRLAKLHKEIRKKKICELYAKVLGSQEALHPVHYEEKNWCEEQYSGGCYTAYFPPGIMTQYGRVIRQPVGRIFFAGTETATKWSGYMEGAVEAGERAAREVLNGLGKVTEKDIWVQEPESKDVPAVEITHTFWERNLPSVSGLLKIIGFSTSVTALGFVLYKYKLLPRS

[9] = DRUGMATRIX: Interleukin IL-1 radioligand binding (ligand: [125I] interleukin 1beta); assay type: cell membranes, Membrane; details: nih3t3; Not Active = under 50% inhibition at 10 µM
Glucocorticoid receptor = target: T3, Glucocorticoid receptor (Homo sapiens, UniProt P04150); details: hela s3; note: in other assays of this panel Not Active means under 50% inhibition at 10 µM
T3 sequence (P04150 whole entry): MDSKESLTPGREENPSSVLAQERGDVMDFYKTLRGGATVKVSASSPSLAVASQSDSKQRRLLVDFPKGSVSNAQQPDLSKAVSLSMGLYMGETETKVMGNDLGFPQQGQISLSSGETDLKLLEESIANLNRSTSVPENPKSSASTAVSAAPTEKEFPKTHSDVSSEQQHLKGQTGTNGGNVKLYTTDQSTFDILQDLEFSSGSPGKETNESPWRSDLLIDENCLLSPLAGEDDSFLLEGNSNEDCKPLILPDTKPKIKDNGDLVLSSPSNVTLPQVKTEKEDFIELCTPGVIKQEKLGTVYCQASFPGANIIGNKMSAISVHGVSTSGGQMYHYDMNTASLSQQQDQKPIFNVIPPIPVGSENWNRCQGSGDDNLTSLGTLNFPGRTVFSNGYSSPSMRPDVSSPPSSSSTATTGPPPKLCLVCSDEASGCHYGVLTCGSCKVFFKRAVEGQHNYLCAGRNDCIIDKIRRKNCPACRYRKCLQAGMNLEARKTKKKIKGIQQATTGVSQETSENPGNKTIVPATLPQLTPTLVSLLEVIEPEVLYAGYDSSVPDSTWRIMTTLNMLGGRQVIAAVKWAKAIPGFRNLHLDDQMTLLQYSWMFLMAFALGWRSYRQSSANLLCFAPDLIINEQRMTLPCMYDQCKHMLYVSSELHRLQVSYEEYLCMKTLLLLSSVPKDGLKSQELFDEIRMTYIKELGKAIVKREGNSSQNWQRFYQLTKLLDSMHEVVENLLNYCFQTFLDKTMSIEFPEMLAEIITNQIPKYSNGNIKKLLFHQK

[10] = DRUGMATRIX: ATPase, Na+/K+ enzyme inhibition (substrate: ATP); assay type: tissue-based, Sus scrofa, Heart; details: Not Active = under 50% inhibition at 10 µM

O=C1OC2(c3ccc(O)cc3Oc3cc(O)ccc32)c2ccccc21 [FLUORESCEIN]
Not Active: IC50 [1] | IC50 [2] | IC50 [3] | IC50 [4] | Ki [4] | IC50 (Adenosine receptor A2a) | IC50 [5] | Ki [5] | IC50 (Substance-P receptor) | IC50 [6] | Ki [6] | IC50 [7] | Ki [7] | IC50 [8] | IC50 [9] | Ki [9] | IC50 (Glucocorticoid receptor) | IC50 [10] | Ki [10]

O=c1[nH]cc(F)c(=O)[nH]1 [FLUOROURACIL]
Not Active: IC50 [1] | IC50 [2] | IC50 [3] | IC50 [4] | Ki [4] | IC50 (Adenosine receptor A2a) | IC50 [5] | Ki [5] | IC50 (Substance-P receptor) | IC50 [6] | Ki [6] | IC50 [7] | Ki [7] | IC50 [8] | IC50 [9] | Ki [9] | IC50 (Glucocorticoid receptor) | IC50 [10] | Ki [10]

CC(C)n1c(/C=C/C(O)CC(O)CC(=O)O)c(-c2ccc(F)cc2)c2ccccc21 (centres undefined) [FLUVASTATIN]
Not Active: IC50 [1] | IC50 [2] | IC50 [3] | IC50 [4] | Ki [4] | IC50 (Adenosine receptor A2a) | IC50 [5] | Ki [5] | IC50 (Substance-P receptor) | IC50 [6] | Ki [6] | IC50 [7] | Ki [7] | IC50 [8] | IC50 [9] | Ki [9] | IC50 (Glucocorticoid receptor) | IC50 [10] | Ki [10]

O=C1OCCN1/N=C/c1ccc([N+](=O)[O-])o1 [FURAZOLIDONE]
Not Active: IC50 [1] | IC50 [2] | IC50 [3] | IC50 [4] | Ki [4] | IC50 (Adenosine receptor A2a) | IC50 [5] | Ki [5] | IC50 (Substance-P receptor) | IC50 [6] | Ki [6] | IC50 [7] | Ki [7] | IC50 [8] | IC50 [9] | Ki [9] | IC50 (Glucocorticoid receptor) | IC50 [10] | Ki [10]

NCC1(CC(=O)O)CCCCC1 [GABAPENTIN]
Not Active: IC50 [1] | IC50 [2] | IC50 [3] | IC50 [4] | Ki [4] | IC50 (Adenosine receptor A2a) | IC50 [5] | Ki [5] | IC50 (Substance-P receptor) | IC50 [6] | Ki [6] | IC50 [7] | Ki [7] | IC50 [8] | IC50 [9] | Ki [9] | IC50 (Glucocorticoid receptor) | IC50 [10] | Ki [10]

CC[N+](CC)(CC)CCOc1cccc(OCC[N+](CC)(CC)CC)c1OCC[N+](CC)(CC)CC.[I-].[I-].[I-] [GALLAMINE TRIETHIODIDE]
Not Active: IC50 [1] | IC50 [2] | IC50 [3] | IC50 [4] | Ki [4] | IC50 (Adenosine receptor A2a) | IC50 [5] | Ki [5] | IC50 (Substance-P receptor) | IC50 [6] | Ki [6] | IC50 [7] | Ki [7] | IC50 [8] | IC50 [9] | Ki [9] | IC50 (Glucocorticoid receptor) | IC50 [10] | Ki [10]
